How the values were obtained:
human ALK2 R206H = biological target: T1, human ALK2 R206H (Homo sapiens, UniProt Q04771, R206H); experiment: Cell-based ALK2-R206H cell activity assay (Smad1-Ser463/Ser465 phosphorylation by AlphaLISA in HEK293-ALK2-R206H cells); details: read-out: Cell Line (Cell Assay IC50)
T1 construct: expressed in transfected cells; host or cells: HEK293 (ATCC CRL1573), lentivirus transduction, blasticidin selection
T1 sequence (Q04771 21-509 R206H): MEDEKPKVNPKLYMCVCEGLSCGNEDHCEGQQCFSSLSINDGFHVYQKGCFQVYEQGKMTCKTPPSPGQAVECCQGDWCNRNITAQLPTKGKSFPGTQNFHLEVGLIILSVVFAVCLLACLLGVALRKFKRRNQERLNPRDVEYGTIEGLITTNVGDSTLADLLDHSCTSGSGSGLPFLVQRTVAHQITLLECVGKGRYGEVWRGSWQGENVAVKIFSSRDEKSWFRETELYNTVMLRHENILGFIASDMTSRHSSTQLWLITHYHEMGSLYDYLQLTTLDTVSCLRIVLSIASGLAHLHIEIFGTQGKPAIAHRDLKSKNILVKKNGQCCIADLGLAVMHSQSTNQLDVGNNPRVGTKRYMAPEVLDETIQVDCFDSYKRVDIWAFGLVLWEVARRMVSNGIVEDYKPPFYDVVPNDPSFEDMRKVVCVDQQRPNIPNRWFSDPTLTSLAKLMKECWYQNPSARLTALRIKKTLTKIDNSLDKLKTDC
Method in brief: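 Stable HEK293 cells expressing C-terminally FLAG-tagged human ALK2 R206H (lentiviral, blasticidin-selected) were treated with compounds in 10-point, 3-fold dilutions from 10 μM or 1 μM top, in duplicate. Smad1 Ser463/Ser465 phosphorylation was read by AlphaLISA.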

[1] = biological target: T2, ALK2 R206H (GST-tagged mutant ALK2) (Homo sapiens, UniProt Q04771, R206H); experiment: ALK binding assay (LANTHASCREEN TR-FRET competitive binding, displacement of Kinase Tracer 178); details: ALK2 R206H, LANTHASCREEN TR-FRET competitive binding; read-out: Binding Assay (IC50)
T2 construct: purchased Carna Bioscience or ThermoFisher 09-148 or PV6232
T2 sequence (Q04771 21-509 R206H): T1 sequence (Q04771 21-509 R206H)

Structure (SMILES)	IC50 (human ALK2 R206H) [nM]	IC50 [1] [nM]
CCNC(=O)N1CCN(c2ccnn3cc(-c4ccc([C@]5(OC)CCCN(C(C)C)C5)cn4)cc23)CC1 [Compound 645]	< 100	< 10
CCNC(=O)N1CCN(c2ccnn3cc(-c4ccc([C@@]5(OC)CCCN(C(C)C)C5)cn4)cc23)CC1 [Compound 646]	< 100	< 10
CCOC1(c2ccc(-c3cc4c(N5CCN(C(=O)OC6COC6)CC5)ccnn4c3)nc2)CCNCC1 [Compound 647]	< 100	< 10
CC(C)NC(=O)N1CCN(c2ccnn3cc(-c4ccc(C5CCN(C(C)C)CC5)cc4F)cc23)CC1 [Compound 649]	< 100	< 10
COC1(c2ccc(-c3cc4c(N5CCN(C(=O)OC6COC6)CC5)ccnn4c3)c(F)c2)CCNCC1 [Compound 650]	< 100	< 10
CCOC(=O)N1CCN(c2ccnn3cc(-c4ccc(C5CCN(C(C)C)CC5)cc4Cl)cc23)CC1 [Compound 651]	< 100	< 10
CC(C)N1CCC(c2ccc(-c3cc4c(N5CCN(C(=O)OCC(F)F)CC5)ccnn4c3)cc2)CC1 [Compound 652]	< 100	< 10
CC(C)N1CCC[C@@H](c2ccc(-c3cc4c(N5CCN(C(=O)[C@H]6C[C@H](C#N)C6)CC5)ccnn4c3)nc2)C1 [Compound 653]	< 100	< 10
CC(C)N1CCC[C@H](c2ccc(-c3cc4c(N5CCN(C(=O)[C@H]6C[C@H](C#N)C6)CC5)ccnn4c3)nc2)C1 [Compound 654]	< 100	< 10
COC1(c2ccc(-c3cc4c(N5CCN(C(=O)C6CC(C#N)C6)CC5)ccnn4c3)cc2)CN(C(C)C)C1 (stereo not drawn) [Compound 655]	< 100	< 10
CCOC1(c2ccc(-c3cc4c(N5CCN(C(=O)C6CC6)CC5)ccnn4c3)cc2)CCN(C(C)C)CC1 [Compound 658]	< 100	< 10
COC1(c2ccc(-c3cc4c(N5CCN(C(=O)C6CC6)[C@H](C)C5)ccnn4c3)cc2)CCN(C(C)C)CC1 [Compound 659]	< 100	< 10
COC1(c2ccc(-c3cc4c(N5CCN(C(=O)C6CC6)CC5)ccnn4c3)nc2)CCN(C2COC2)CC1 [Compound 660]	< 100	< 10
CCOC1(c2ccc(-c3cc4c(N5CCN(C(=O)C6CC6)CC5)ccnn4c3)nc2)CCN(C(C)C)CC1 [Compound 662]	< 100	< 10
CC(C)[C@@H](C)NC(=O)N1CCN(c2ccnn3cc(-c4ccc(C5CCN(C(C)C)CC5)cc4)cc23)CC1 [Compound 663]	< 100	< 10
CC(C)N1CCC(c2ccc(-c3cc4c(N5CCN(C(=O)NCC(C)(C)C)CC5)ccnn4c3)cc2)CC1 [Compound 664]	100 to 500	< 10

Structure (SMILES)	IC50 (human ALK2 R206H) [nM]	IC50 [1] [nM]
CC(C)N1CCC(C)(c2ccc(-c3cc4c(N5CCN(C(=O)OC6COC6)CC5)ccnn4c3)cc2)CC1 [Compound 668]	100 to 500	< 10
CC(C)NC(=O)N1CCN(c2ccnn3cc(-c4ccc([C@]5(C)CN(C(C)C)CCN5C)cc4)cc23)CC1 [Compound 671]	< 100	< 10
CC(C)NC(=O)N1CCN(c2ccnn3cc(-c4ccc([C@@]5(C)CN(C(C)C)CCN5C)cc4)cc23)CC1 [Compound 672]	< 100	< 10
CCNC(=O)N1CCN(c2ccnn3cc(-c4ccc(C5(OCC)CCN(C(C)C)CC5)cc4)cc23)CC1 [Compound 675]	< 100	< 10
CCO[C@]1(c2ccc(-c3cc4c(N5CCN(C(=O)NC(C)C)CC5)ccnn4c3)cc2)CCN(C(C)C)C1 [Compound 676]	< 100	< 10
COC1(c2ccc(-c3cc4c(N5CCN(C(=O)C6CC6)CC5)ccnn4c3)cc2F)CCN(C(C)C)CC1 [Compound 680]	< 100	< 10
COC1(c2ccc(-c3cc4c(N5CCN(C(=O)[C@H]6C[C@@H]6F)CC5)ccnn4c3)cc2)CCN(C(C)C)CC1 [Compound 681]	< 100	< 10
COC1(c2ccc(-c3cc4c(N5CCN(C(=O)C6CC6)CC5)ccnn4c3)c(F)c2)CCN(C(C)C)CC1 [Compound 682]	< 100	< 10
CO[C@]1(c2ccc(-c3cc4c(N5CCN(C(=O)C6CC6)CC5)ccnn4c3)cc2F)CCCN(C(C)C)C1 [Compound 683]	< 100	< 10
CO[C@@]1(c2ccc(-c3cc4c(N5CCN(C(=O)C6CC6)CC5)ccnn4c3)cc2F)CCCN(C(C)C)C1 [Compound 684]	< 100	< 10
COC1(c2ccc(-c3cc4c(N5CCN(C(=O)OC(C)C)CC5)ccnn4c3)cc2)CCN(C(C)C)CC1 [Compound 685]	< 100	< 10
CO[C@@]1(c2ccc(-c3cc4c(N5CCN(C(=O)NC(C)C)CC5)ccnn4c3)nc2)CCCN(C(C)C)C1 [Compound 686]	< 100	< 10
CO[C@]1(c2ccc(-c3cc4c(N5CCN(C(=O)NC(C)C)CC5)ccnn4c3)nc2)CCCN(C(C)C)C1 [Compound 687]	< 100	< 10
COC1(c2ccc(-c3cc4c(N5CCN(C(=O)NC(C)C)CC5)ccnn4c3)nc2)CCN(C(C)C)CC1 [Compound 688]	< 100	< 10
COC1(c2cnc(-c3cc4c(N5CCN(C(=O)C6CC6)CC5)ccnn4c3)c(F)c2)CCN(C(C)C)CC1 [Compound 689]	100 to 500	< 10

Second part, the compound after the results:

IC50 (human ALK2 R206H) [nM]	IC50 [1] [nM]	Structure (SMILES)
< 100	< 10	CC(C)NC(=O)N1CCN(c2ccnn3cc(-c4ccc(C5(F)CCN(C(C)C)CC5)cc4)cc23)CC1 [Compound 648]
< 100	< 10	CCO[C@@]1(c2ccc(-c3cc4c(N5CCN(C(=O)C6CC6)CC5)ccnn4c3)cc2)CCCN(C(C)C)C1 [Compound 656]
< 100	< 10	CCO[C@]1(c2ccc(-c3cc4c(N5CCN(C(=O)C6CC6)CC5)ccnn4c3)cc2)CCCN(C(C)C)C1 [Compound 657]
100 to 500	< 10	CC(C)N1CCC(c2ccc(-c3cc4c(N5CCN(C(=O)NCC6COC6)CC5)ccnn4c3)cc2)CC1 [Compound 661]
< 100	< 10	CC(C)N1CCC(c2ccc(-c3cc4c(N5CCN(C(=O)OCC6COC6)CC5)ccnn4c3)cc2)CC1 [Compound 665]
< 100	< 10	CC(C)N1CCC(c2ccc(-c3cc4c(N5CCN(C(=O)O[C@@H]6CCOC6)CC5)ccnn4c3)cc2)CC1 [Compound 666]
< 100	< 10	CC(C)N1CCC(c2ccc(-c3cc4c(N5CCN(C(=O)O[C@H]6CCOC6)CC5)ccnn4c3)cc2)CC1 [Compound 667]
< 100	< 10	CC(C)N1CCC(c2ccc(-c3cc4c(N5CCN(C(=O)OC6COC6)[C@H](C)C5)ccnn4c3)cc2)CC1 [Compound 669]
< 100	< 10	CCNC(=O)N1CCN(c2ccnn3cc(-c4ccc([C@]5(OCC)CCCN(C(C)C)C5)cc4)cc23)CC1 [Compound 673]
< 100	< 10	CCNC(=O)N1CCN(c2ccnn3cc(-c4ccc([C@@]5(OCC)CCCN(C(C)C)C5)cc4)cc23)CC1 [Compound 674]
< 100	< 10	CCO[C@@]1(c2ccc(-c3cc4c(N5CCN(C(=O)NC(C)C)CC5)ccnn4c3)cc2)CCN(C(C)C)C1 [Compound 677]
< 100	< 10	CC(C)N1CC[C@H](O)[C@@H](c2ccc(-c3cc4c(N5CCN(C(=O)OC6COC6)CC5)ccnn4c3)cc2)C1 [Compound 678]
< 100	< 10	CC(C)N1CC[C@@H](O)[C@H](c2ccc(-c3cc4c(N5CCN(C(=O)OC6COC6)CC5)ccnn4c3)cc2)C1 [Compound 679]
< 100	< 10	CC(C)N1CCC[C@@](F)(c2ccc(-c3cc4c(N5CCN(C(=O)OC6COC6)CC5)ccnn4c3)cc2)C1 [Compound 690]
< 100	< 10	CC(C)N1CCC[C@](F)(c2ccc(-c3cc4c(N5CCN(C(=O)OC6COC6)CC5)ccnn4c3)cc2)C1 [Compound 691]
< 100	< 10	CC(C)N1CCC[C@@H](c2ccc(-c3cc4c(N5CCN(C(=O)OC6COC6)CC5)ccnn4c3)cc2F)C1 [Compound 692]
< 100	< 10	CC(C)N1CCC[C@H](c2ccc(-c3cc4c(N5CCN(C(=O)OC6COC6)CC5)ccnn4c3)cc2F)C1 [Compound 693]
< 100	< 10	CC(C)N1CCC(c2ccc(-c3cc4c(N5CCN(C(=O)OC6COC6)CC5)ccnn4c3)c(F)c2)CC1 [Compound 694]
< 100	< 10	CC(C)N1CCC[C@@](F)(c2ccc(-c3cc4c(N5CCN(C(=O)OC6COC6)CC5)ccnn4c3)nc2)C1 [Compound 695]
< 100	< 10	CC(C)N1CCC[C@](F)(c2ccc(-c3cc4c(N5CCN(C(=O)OC6COC6)CC5)ccnn4c3)nc2)C1 [Compound 696]

Source: patent US10233186B2, “Inhibitors of activin receptor-like kinase” (BLUEPRINT MEDICINES CORPORATION, priority 2016, dated 2019)
